According to article PMC3586668 (PLoS ONE, 2013):
Like-named read-outs stand apart in the source and are kept apart here.

Tests used:
[1] = Polypeptide transport across 3-day Caco-2 monolayers (ELISA); format: in vitro ADME, Human; conditions: human, 3-day Caco-2, apical-to-basolateral, room temperature, gentle shaking, mean±SD n = 3, read-out: Apparent Permeability (Papp)
Procedure: (§1) Transport of three different macromolecular pharmaceutical peptides was studied across the Caco-2 monolayers at different loading concentrations. […] Different doses were selected for different polypeptides based upon the values reported in literature to not only approach therapeutic efficacy but also to provide a valid comparison with the results obtained in 21-day monolayer system. Polypeptides were incubated with Caco-2 monolayers for 5 hrs at room temperature with gentle shaking. TEER measurements were performed and samples were collected from basolateral chambers of the Caco-2 plates to determine total drug transport and apparent permeability at different concentrations.

[2] = test system: Caco-2 monolayers; test: as above; format: in vitro ADME, Human; conditions: 3-day Caco-2, apical-to-basolateral, room temperature, mean±SD n = 3; for Total amount transported to the basolateral side: 5 h
Procedure: as §1

[3] = test system: rat jejunum; set-up: method as in 2 sources, ref 33 = [33]; PMID 21501675; doi:10.1016/j.ijpharm.2011.04.003; 33 Woitiski CB , Sarmento B , Carvalho RA , Neufeld RJ , Veiga F ( 2011 ) Facilitated nanoscale delivery of insulin across intestinal membrane models . Int J Pharm 412 : 123 – 131 . 21501675 10.1016/j ||| ref 36 = [36]; PMID 10227707; doi:10.1023/a:1018819012405; 36 Sinko PJ , Lee YH , Makhey V , Leesman GD , Sutyak JP , et al ( 1999 ) Biopharmaceutical approaches for developing and assessing oral peptide delivery strategies and systems: in vitro permeability; conditions: cited from earlier work
[4] = test system: Caco-2 monolayers; test: Validation of 3-day Caco-2 transwell system: FITC-insulin and sulforhodamine-B transport (fluorescence); conditions: for Apparent Permeability (Papp) / % Transport in 5 hours / Cumulative amount transported to basolateral chamber: room temperature, fluorescence, mean±SD n = 3; for Apparent Permeability (Papp): gentle shaking; for Cumulative amount transported to basolateral chamber: after 5 h
Procedure: (§2) Human colorectal adenocarcinoma Caco-2 cell line (HTB-37) obtained from American Type culture Collection (ATCC) (Manassas, VA, USA) was used for all experiments. Cell lines were maintained as per the provider's protocol. Cell culture was performed in Hyclone® DMEM high glucose medium (Thermo Fisher Scientific, Pittsburgh, PA, USA) supplemented with 50 IU/ml of penicillin, 50 mg/L of streptomycin, and 100 ml/L of fetal bovine serum at 37°C in a humidity-controlled 5% CO2 cell culture incubator. Cells were split at a ratio of 1∶3 after reaching 90% confluence. All transwell experiments were performed with cells between 5th–14th passages due to possible phenotypic differences between cells from high and low passage intervals. Cells were cultivated for at least 2 passages before seeding onto transwell filter supports to stabilize the cell phenotype 12].
(§3) Transwell experiments were performed with slight modifications to the protocols provided by the manufacturer (BD Biosciences, Bedford, MA, USA). For the development of the transwell assay system for permeability experiments, Caco-2 cells were seeded onto fibrillar collagen coated polyethylene terephthalate (PET) filter supports (1 µm pore size) of BD Biocoat™ HTS Caco-2 assay system (BD Biosciences, Bedford, MA, USA) according to manufacturer's protocol with slight modifications. Briefly, Caco-2 cells were seeded onto the filter supports at a concentration of 200,000 cells/insert (6.6×10^5 cells/cm^2) using basal seeding medium (with MITO+ serum extender) provided in the HTS system, and were incubated in cell culture incubator (37°C, 5% CO2). Cells were fed from both sides using the Multiwell feeder tray. After 24 hrs, the feeding medium was replaced with MITO+ serum extender supplemented Entero-STIM medium, and growing monolayers were incubated as described earlier. Upon incubation for 48–72 hrs, Caco-2 cells developed a tight junction monolayer, integrity of which was determined by TEER measurements.
(§4) The integrity of Caco-2 monolayer was determined by measuring the transepithelial electrical resistance (TEER) of the cell monolayer grown on filter supports using Millicell-ERS electrical resistance measuring system (Millipore, Bedford, MA) using chopstick electrodes. Briefly, the Caco-2 inserts were transferred to a 24-well culture plate with 1400 µl medium in the feeding well, and 500 µl in culture inserts. The electrodes were immersed in a way that shorter electrode was in the insert and longer electrode in the outer well. […] Based on the literature, a resistance reading of 150–200 Ω.cm^2 was considered as indicative of a confluent Caco-2 monolayer with tight junctions.
(§5) Briefly, cells were pre-conditioned with basal seeding medium for 30 minutes before starting the experiment at 37°C. […] The basolateral chamber consisted 1400 µl of the same growth medium as per manufacturer's protocol. The plates were incubated for 5 hrs at room temperature with gentle shaking (5 rocks/minute on a rocker, so as to mimic intestinal peristaltic movement). TEER measurements were performed at predetermined time intervals (0. 0.25, 0.5, 1, 2, 3, and 5 hrs). At the same time-points, 100 µl samples were withdrawn from the basolateral chamber to quantify the total amount of FITC-ins/sulforhodamine-B transported across the monolayer. The withdrawn sample was immediately replaced with equivalent amount of the experimental medium.
(§6) The apparent permeability coefficients (Papp) of all polypeptides were calculated using the following equation 19]: [drawing 1]
(§7) Where dQ/dt is the amount of solutes transported across the Caco-2 barrier in time dt, C0 is the solute concentration in apical compartment at time zero, and A is the cross-sectional area of the epithelium in contact with apical solution. Total percent drug transport was calculated by dividing the cumulative amount of molecules transported with the original loading concentrations.

[5] = test system: Caco-2 monolayers
Procedure: as §2, §3, §4, §5, §6, §7

[6] = apical loading 0.005 mg (5 µg/well)
[7] = apical loading 0.024 mg (24 µg/well)

Which Papp A→B at 5 h, 5 µg/well [1, 6] does the source give for `CC(C)C[C@H](NC(=O)[C@H](CCCCN)NC(=O)CNC(=O)[C@H](CC(C)C)NC(=O)[C@@H](NC(=O)[C@@H]1CSSC[C@H](N)C(=O)N[C@@H](CO)C(=O)N[C@@H](CC(N)=O)C(=O)N[C@@H](CC(C)C)C(=O)N[C@@H](CO)C(=O)N[C@@H]([C@@H](C)O)C(=O)N1)C(C)C)C(=O)N[C@@H](CO)C(=O)N[C@@H](CCC(N)=O)C(=O)N[C@@H](CCC(=O)O)C(=O)N[C@@H](CC(C)C)C(=O)N[C@@H](Cc1c[nH]cn1)C(=O)N[C@@H](CCCCN)C(=O)N[C@@H](CC(C)C)C(=O)N[C@@H](CCC(N)=O)C(=O)N[C@H](C(=O)N[C@@H](Cc1ccc(O)cc1)C(=O)N1CCC[C@H]1C(=O)N[C@@H](CCCNC(=N)N)C(=O)N[C@H](C(=O)N[C@@H](CC(N)=O)C(=O)N[C@H](C(=O)NCC(=O)N[C@@H](CO)C(=O)NCC(=O)N[C@H](C(=O)N1CCC[C@H]1C(N)=O)[C@@H](C)O)[C@@H](C)O)[C@@H](C)O)[C@@H](C)O` [Salmon Calcitonin] here?
Its Papp A→B at 5 h, 5 µg/well is 2 ± 0.07 ×10⁻⁶ cm/s.

What about the Papp A→B at 5 h, 24 µg/well [1, 7] of the same molecule?
Its Papp A→B at 5 h, 24 µg/well is 1.5 ± 0.7 ×10⁻⁶ cm/s.

And the “Total amount transported to the basolateral side” value ([2]; apical loading 5 µg/well)?
Its value is 55 ± 2 ng.

And the “% Transport in 5 hours” value [2, 6]?
The value was 1.1±0.04%.

And the “% Transport in 5 hours” value [2, 7]?
Its value is 0.8±0.4%.

And the “Total amount transported to the basolateral side” value ([2]; apical loading 24 µg/well)?
The value was 192 ± 95 ng.

What about the “Permeability through rat jejunum” value [3] of the same molecule?
The value was 1.9±0.5 ×10^−6 cm/sec.

For `CCN(CC)c1ccc2c(-c3ccc(S(=O)(=O)O)cc3S(=O)(=O)[O-])c3ccc(=[N+](CC)CC)cc-3oc2c1` [Sulforhodamine-B, sulforhodamine B], which “Apparent Permeability (Papp)” value ([4]; 3-day Caco-2 (BD Biocoat HTS, serum-free), apical-to-basolateral, apical loading 0.05 mg/well in 500 µl basal seeding medium, 30 min pre-conditioning, 5 h) is on record?
The value was 5.0±2.9 10^−6 cm/s.

And the “% Transport in 5 hours” value ([4]; 3-day Caco-2, apical-to-basolateral, apical loading 0.05 mg/well, 5 h)?
Its value is 2.8±1.6%.

And the “Cumulative amount transported to basolateral chamber” value (“Cumulative amount transported” below) ([4]; 3-day Caco-2, apical-to-basolateral, apical loading 0.05 mg/well)?
The value was 0.002 ± 0.0008 mg.

What about the “Apparent Permeability (Papp)” value ([4]; 3-day Caco-2, apical-to-basolateral, apical loading 0.3 mg/well in 500 µl, 5 h) of the same molecule?
The value was 5.3±0.8 10^−6 cm/s.

And the “% Transport in 5 hours” value ([4]; 3-day Caco-2, apical-to-basolateral, apical loading 0.3 mg/well, 5 h)?
Its value is 2.9±0.4%.

And the “Cumulative amount transported” value ([4]; 3-day Caco-2, apical-to-basolateral, apical loading 0.3 mg/well)?
Its value is 0.009 ± 0.001 mg.

What about the “Apparent Permeability (Papp)” value ([4]; 3-day Caco-2, apical-to-basolateral, apical loading 0.6 mg/well in 500 µl, 5 h) of the same molecule?
The value was 4.0±0.6 10^−6 cm/s.

What about the “% Transport in 5 hours” value ([4]; 3-day Caco-2, apical-to-basolateral, apical loading 0.6 mg/well, 5 h) of the same molecule?
The value was 2.3±0.4%.

And the “Cumulative amount transported” value ([4]; 3-day Caco-2, apical-to-basolateral, apical loading 0.6 mg/well)?
The value was 0.01 ± 0.002 mg.

And the “Apparent Permeability (Papp)” value ([4]; 3-day Caco-2, apical-to-basolateral, apical loading […] in 500 µl, 5 h)?
The value was 4.9±0.9 10^−6 cm/s.

And the “Effect on Caco-2 monolayer integrity during transport” value ([4]; 3-day Caco-2, different loading concentrations, 5 h, TEER)?
The value was “without damaging the monolayer”.

Which results are given for “FITC-Insulin: fluorescein isothiocynate conjugated bovine insulin (Sigma Aldrich)”?
Apparent permeability coefficients (Papp), range over the loadings studied [5]: 8.2±1.8-10.5±1.8; Effect on Caco-2 monolayer integrity during transport [5]: without damaging the monolayer
